How the values were obtained:
[1] = system: Yolk sac endothelial cells (YSECs); settings: for rescue of tube formation in IBMX+NK-B treated cells: 100 ng/ml mouse VEGF164 or 30 ng/ml mouse bFGF
Description: (§1) Vascular network assembly was assessed by measuring the formation of capillary-like structures by endothelial cells on Matrigel (BD Biosciences, San Jose, Calif.). Matrigel was diluted 1:1 with supplement-free M200 medium, poured in 24-well plates, and allowed to solidify at 37° C. Subconfluent endothelial cells were harvested and preincubated under different experimental conditions (YSECs, 1 h; HUVECs, HAECs, and human microvascular endothelial cells (HMVECs), 2 h in supplement-free M200 medium in microfuge tubes. An equal volume of supplemented medium containing the indicated reagents was added. Cells were plated on Matrigel (1.5×10^5 cells/well) and incubated at 37° C. Vascular network assembly was measured as a function of time, and digital pictures were captured.

[2] = system: chorioallantoic membrane (CAM); assay: Chick chorioallantoic membrane assay; format: in vivo, chicken; settings: L733060 5 μM, SB222200 2 μM, alone or combined; day 7 embryos, 48 h
Description: Fertilized chicken eggs were incubated at 39° C. with 90% humidity. On embryonic day 7, a small hole was drilled at the end of the egg that contains the air sac to lower the embryo. A second hole was made above the chorioallantoic membrane (CAM), and 100 μl of a 1.5% solution of methylcellulose (Stem Cell Technologies, Vancouver, BC) containing either FGF2 (500 ng) or VEGF (200 ng) and vehicle, IBMX (100 μg), NK-B (40 μg)/IBMX, or mutant NK-B (40 μg)/IBMX were applied to the CAM. A solution of penicillin/streptomycin was added, and the eggs were sealed with transparent tape. Vasculature was analyzed after 48 h, and digital images were captured at 40× magnification.

[3] = system: human aortic endothelial cells (HAECs); assay: Vascular network assembly assay on Matrigel; format: cell-based; settings: NK-B, U46619 (2 μM) or both, 2 h, 16 h on Matrigel
Description: as §1

YSECs [4] = assay: cAMP assay; format: cell-based, mouse; settings: supplement-free M200 medium
Description: Cells were cultured in 6-well plates (2×10^5 cells/well), washed with supplement-free M200 medium and treated with indicated reagents at 37° C. The reactions were terminated by aspiration of the medium. Cells were washed with PBS and lysed in 500 μl of 0.1 N HCl containing 0.5% Triton X-100. cAMP was assayed in cell lysates (100 μl) using a direct cAMP enzyme-linked immunosorbent assay (Assay Designs, Inc., Ann Arbor, Mich.).

YSECs [5] = assay: Calcium imaging (Ca+2 oscillations); format: cell-based, mouse; settings: YSECs on Matrigel, supplemented medium
Description: Cells were incubated for ˜30 min in 4 μM fluo-4/AM (Molecular Probes, Carlsbad, Calif.) in supplement-free M200 medium at 37° C., trypsinized, plated on Matrigel with indicated reagents, and allowed to adhere for 10 min. Time-lapse video microscopy with an Olympus AX70 laser scanning confocal microscope was used to measure intracellular Ca^+2 as described previously (Robles et al., 2003). An argon laser at 488 nm was used to excite Fluo-4, and the emitted light was detected at wavelengths>510 nm. Images were acquired at 15 s intervals and analyzed using Image J (Image Processing and Analysis in JAVA, Nat'l Inst. Health). When indicated, the fluorescence intensity in the region of interest (F) was normalized by dividing the Ca+2 signal by the fluorescence intensity of the resting cell at time 0 (F0).

HUVECs = assay: Vascular network assembly assay on Matrigel; format: cell-based, human
Description: as §1

calreticulin in YSECs = assay: Calreticulin 2D gel electrophoresis and Western blot; format: cell-based, mouse; settings: 2 μM ionomycin, 1 h, supplement-free M200 medium
Description: […] Cells were processed and proteins analyzed as described above in Example 2.
Cells were harvested, washed twice with ice-cold PBS, and lysed in lysis buffer containing 10 mM Tris (pH 7.4), 0.3% SDS, 100 μg/mL Ribonuclease A (Sigma), 200 μg/mL DNase I (Sigma), 20 μg/mL leupeptin (Sigma), 6 μg/mL E-64 (Sigma), 1 mM EDTA (Calbiochem), and 100 μg/mL benzamidine (Sigma). Cells were incubated on ice for 30 min, an equal volume of loading buffer containing 60 mM Tris (pH 6.8), 5% SDS, 10% glycerol was added, and samples were boiled for 5 min. 2D gel electrophoresis was conducted using pH 3.5-10 ampholines, and proteins were detected by Coomassie Blue staining. […]
The following antibodies were used for Western blots: Anti-phospho-FAK (Tyr-397) (Biosource, 44-624G); anti-FAK, anti-phospho-Akt (Ser 473), anti-Akt, anti-phospho-p44/42 MAP kinase (Thr 202/Tyr 204), anti-p44/42 MAP kinase antibodies (Cell Signaling Technology); anti-calreticulin (Upstate, 06-661); anti-α-tubulin (Calbiochem); anti Flt-1 (Santa Cruz Biotech, C-17); anti-Flk-1 (Cell Signaling Technologies, 2479). […] Extracts were resolved on SDS polyacrylamide gels, transferred to Immobilon P membranes (Millipore, Billerica, Mass.), and analyzed by Western blotting. Proteins were detected by chemiluminescence using ECL-Plus (Amersham Biosciences Piscataway, N.J.).

[6] = system: Flt-1 and Flk-1 (VEGF receptors) in YSECs; assay: Gene expression analysis by real-time RT-PCR; format: cell-based, mouse; settings: for rescue of Flt-1 and Flk-1 expression and cell signaling: NK-B/IBMX-treated YSECs, growth factor 100 ng/ml
Description: Real-time RT-PCR was conducted Total RNA was purified with Trizol (Invitrogen). cDNA was prepared by annealing RNA (1 μg) with 250 ng of a 1:5 mixture of random and oligo(dT) primers (Promega) at 68° C. for 10 min, followed by incubation with Moloney Murine Leukemia Virus reverse transcriptase (Invitrogen) with 10 mM dithiothreitol, RNasin (Promega), and 0.5 mM dNTPs at 42° C. for 1 h. Reactions were diluted to a final volume of 100 μl and subjected to heat-inactivation at 98° C. for 10 min. Reactions (25 μl) contained 2.5 μl of cDNA, 12.5 μl of SYBR Green Master Mix (Applied Biosystems), and appropriate primers. Product accumulation was monitored by SYBR Green fluorescence. Control reactions lacking RT yielded little or no signals. The relative expression levels were determined from a standard curve of serial dilutions of cDNA samples from untreated control cells, and measurements were conducted under conditions of linearity.
Real time RT-PCR primers were designed using PRIMER EXPRESS 1.0 (PE Applied Biosystems) to amplify 50-150 bp amplicons and were based on GenBank Ensembl sequences.

For `CC(C)Cn1c(=O)n(C)c(=O)c2[nH]cnc21` [IBMX, 3-Isobutyl-1-methylxanthine], which “vascular network assembly (capillary like tube formation)” value ([1]; 250 μM IBMX, 10 μM forskolin, 100 μM NK-B, 20 h, 3 experiments) is on record?
The value was “has little effect on vascular network assembly”.

Which “microvessel density of CAM” value [2] does the source give for `Cl.FC(F)(F)c1cc(CO[C@H]2CCCN[C@H]2c2ccccc2)cc(C(F)(F)F)c1` [L733060] here?
The value was “much higher”.

How did the “microvessel density of CAM” value [2] turn out when `CC[C@H](NC(=O)c1c(C)c(-c2ccccc2)nc2ccccc12)c1ccccc1` [SB222200, (S)-3 methyl-2-phenyl-N-(1-phenylpropyl)-4-quinilinecarboxamide] was run?
Its value is “much higher”.

For `CCCCC[C@H](O)/C=C/[C@@H]1[C@@H](C/C=C\CCCC(=O)O)[C@H]2CO[C@@H]1C2` [U46619], which vascular network assembly ([1]; NK-B, U46619 (2 μM) or both, 1 h, 16 h on Matrigel) is on record?
The vascular network assembly was “had little effect”.

And the vascular network assembly [3]?
The vascular network assembly was “had little effect”.

What about the cAMP (YSECs [4]) of the same molecule?
The cAMP was “decrease the amount of cAMP”.

What about the “Ca+2 oscillations” value (YSECs [5]) of the same molecule?
Its value is “decreasing the amount of Ca^2+ oscillations”.

And the vascular network assembly (HUVECs; NK-B, U46619 (2 μM) or both, 2 h, 16 h on Matrigel)?
Its vascular network assembly is “had little effect”.

How did the calreticulin/alpha-tubulin ratio increase (calreticulin in YSECs) turn out when `C[C@H](CCC(=O)O)C[C@H](C)C[C@H](C)C(=O)/C=C(\O)[C@H](C)C[C@H](C)C/C=C/[C@@H](C)[C@@H](O)[C@@H](C)[C@@H](O)C[C@@H]1CC[C@@](C)([C@H]2CC[C@@](C)([C@@H](C)O)O2)O1` [ionomycin] was run?
The calreticulin/alpha-tubulin ratio increase was roughly 2 fold.

For “FGF2: fibroblast growth factor-2 (bovine FGF2 from R & D systems; also called mouse FGF2/bFGF)”, which “rescue of tube formation in IBMX+NK-B treated cells” value [1] is on record?
Its value is “but not bFGF Rescues the NK-B Effect”.

And the “rescue of Flt-1 and Flk-1 expression and cell signaling” value [6]?
Its value is “but not FGF2, rescues Flt-1 and Flk-1 expression and cell signaling”.

And the FGFR1 transcription ([6]; YSECs, 100 ng/ml FGF2 with or without NK-B)?
Its FGFR1 transcription is “increased”.

With VEGF as the molecule, how does the “rescue of tube formation in IBMX+NK-B treated cells” value [1] read?
The value was “can form capillary-like tubes but in a slower kinetics”.

And the “rescue of Flt-1 and Flk-1 expression and cell signaling” value [6]?
Its value is “rescues Flt-1 and Flk-1 expression and cell signaling”.

B1: calreticulin: E. coli overexpressed and purified recombinant calreticulin, anti-angiogenic protein (protein, UniProt P27797 18-417, looked up)
Calreticulin: EPAVYFKEQFLDGDGWTSRWIESKHKSDFGKFVLSSGKFYGDEEKDKGLQTSQDARFYALSASFEPFSNKGQTLVVQFTVKHEQNIDCGGGYVKLFPNSLDQTDMHGDSEYNIMFGPDICGPGTKKVHVIFNYKGKNVLINKDIRCKDDEFTHLYTLIVRPDNTYEVKIDNSQVESGSLEDDWDFLPPKKIKDPDASKPEDWDERAKIDDPTDSKPEDWDKPEHIPDPDAKKPEDWDEEMDGEWEPPVIQNPEYKGEWKPRQIDNPDYKGTWIHPEIDNPEYSPDPSIYAYDNFGVLGLDLWQVKSGTIFDNFLITNDEAYAEEFGNETWGVTKAAEKQMKDKQDEEQRLKEEEEDKKRKEEEEAEDKEDDEDKDEDEEDEEDKEEDEEEDVPGQAKDEL
What does the source list for B1?
Flt-1 and Flk-1 transcription ([6]; YSECs, forskolin (10 μM)/IBMX, calreticulin (13 μg/ml), vasostatin (5 μg/ml), 1, 2 or 5 h on Matrigel): failed to affect Flt-1 and Flk-1 transcription; vascular network assembly (HUVECs; calreticulin 13 μg/ml, vasostatin 5 μg/ml, 1 h): inhibit YSEC and HUVEC vascular network assembly
